Source: ChEMBL document CHEMBL1201862, “PubChem BioAssay data set” (2004)
Active and inactive are the calls of the source.

Assays:
[1] = target: Mitogen-activated protein kinase 12 (Homo sapiens, UniProt P53778); type: functional;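 also: measured as one member of a kinome-wide kinase profiling panel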
[2] = target: Mitogen-activated protein kinase 9 (Homo sapiens, UniProt P45984); type: functional;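 also: value from a kinome panel profiling assay, MAPK9 panel entry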
[3] = cytotoxicity in MIN6 insulinoma cells, dose response, cytotoxicity control, cell-based, mouse insulinoma (AID 2122); type: functional;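 also: confirmatory high-throughput counterscreen run to flag cytotoxic compounds; mouse MIN-6 beta cells carrying an insulin promoter eGFP reporter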
[4] = inhibitors of intracellular T. cruzi replication, confirmation, NIH3T3 host cells, beta-gal luminescence (AID 2044); type: functional, cell-based;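 also: intracellular parasites grown in NIH/3T3 mouse fibroblasts as host cells; luminescent beta-galactosidase reporter signal from transgenic T. cruzi replicating inside host cells; inhibitors lower the luminescence signal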
[5] = target: T1, Replicative DNA helicase DnaB (Mycobacterium tuberculosis, UniProt P9WMR3); experiment: DnaB intein splicing inhibitors, dose response, biochemical, cell-free fluorescence (AID 449749); type: functional
T1 sequence (P9WMR3 whole entry): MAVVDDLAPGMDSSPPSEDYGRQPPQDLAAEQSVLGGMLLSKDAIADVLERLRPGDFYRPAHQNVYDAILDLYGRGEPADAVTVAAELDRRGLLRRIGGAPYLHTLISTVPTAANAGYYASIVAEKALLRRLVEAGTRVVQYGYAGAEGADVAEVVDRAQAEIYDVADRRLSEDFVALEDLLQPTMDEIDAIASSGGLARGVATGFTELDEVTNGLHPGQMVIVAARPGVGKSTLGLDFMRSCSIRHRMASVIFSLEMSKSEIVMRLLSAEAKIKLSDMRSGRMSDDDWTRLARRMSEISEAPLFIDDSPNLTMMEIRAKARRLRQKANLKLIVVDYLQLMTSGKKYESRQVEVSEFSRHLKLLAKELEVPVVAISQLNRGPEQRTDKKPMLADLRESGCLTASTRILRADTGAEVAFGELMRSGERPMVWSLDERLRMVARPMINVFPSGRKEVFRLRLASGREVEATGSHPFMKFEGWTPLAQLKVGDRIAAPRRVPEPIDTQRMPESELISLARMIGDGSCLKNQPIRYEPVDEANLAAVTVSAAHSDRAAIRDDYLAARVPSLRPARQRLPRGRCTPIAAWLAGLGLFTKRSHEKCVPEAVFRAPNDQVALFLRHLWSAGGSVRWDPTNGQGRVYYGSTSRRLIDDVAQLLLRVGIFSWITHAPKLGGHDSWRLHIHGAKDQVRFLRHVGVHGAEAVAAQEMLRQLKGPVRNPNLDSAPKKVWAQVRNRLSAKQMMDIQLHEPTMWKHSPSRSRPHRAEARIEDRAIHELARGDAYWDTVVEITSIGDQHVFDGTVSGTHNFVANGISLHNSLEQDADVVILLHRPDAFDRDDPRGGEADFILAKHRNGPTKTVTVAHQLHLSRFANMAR

Protein RecA = target: T2, Protein RecA (Mycobacterium tuberculosis, UniProt P9WHJ3); experiment: Fluorescence Cell-Free Homogeneous Dose Retest to Identify Inhibitors of RecA-Intein Splicing Activity. [Related pubchem assays (depositor defined):AID2097, AID2223, AID489010, AID492950]; type: functional
T2 sequence (P9WHJ3 whole entry): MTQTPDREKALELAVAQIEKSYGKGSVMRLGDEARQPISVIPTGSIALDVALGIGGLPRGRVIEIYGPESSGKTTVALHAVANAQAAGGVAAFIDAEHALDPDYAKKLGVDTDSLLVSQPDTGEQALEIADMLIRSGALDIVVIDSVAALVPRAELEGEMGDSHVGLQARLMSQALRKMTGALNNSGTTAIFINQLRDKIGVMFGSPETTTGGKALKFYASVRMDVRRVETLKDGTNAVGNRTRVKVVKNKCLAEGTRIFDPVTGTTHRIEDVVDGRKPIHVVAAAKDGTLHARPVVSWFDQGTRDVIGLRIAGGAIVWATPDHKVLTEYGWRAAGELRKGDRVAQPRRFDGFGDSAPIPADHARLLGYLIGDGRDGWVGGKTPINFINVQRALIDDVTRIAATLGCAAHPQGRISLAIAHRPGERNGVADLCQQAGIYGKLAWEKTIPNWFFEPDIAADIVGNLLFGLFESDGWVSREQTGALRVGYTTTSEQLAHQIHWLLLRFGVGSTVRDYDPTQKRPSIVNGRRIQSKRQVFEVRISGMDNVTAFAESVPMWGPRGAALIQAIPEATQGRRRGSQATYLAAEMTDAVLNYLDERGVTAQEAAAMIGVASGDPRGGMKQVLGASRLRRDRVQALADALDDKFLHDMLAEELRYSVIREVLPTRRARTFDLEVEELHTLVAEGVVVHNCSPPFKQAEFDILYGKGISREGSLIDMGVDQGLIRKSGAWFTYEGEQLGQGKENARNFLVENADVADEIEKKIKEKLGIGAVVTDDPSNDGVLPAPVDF

[6] = Shn3 3'UTR reporter inhibitors, dose response, cell-based, Clone20 osteoblasts, firefly luciferase, cherry-picked (AID 624132); type: functional;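 also: firefly luciferase luminescence from reporter carrying the Shn3 3'UTR in osteoblasts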
[7] = nonselective inhibitors of cellular cAMP signaling, dose response, counter-screen for MC4R biased antagonist project, cell-based, TR-FRET cAMP detection (AID 602305); type: functional;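 also: U2OS cells stimulated with forskolin near its EC80 as the cAMP inducer; potency is for inhibition of forskolin-stimulated cAMP signaling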
Melanocortin receptor 4 = Melanocortin receptor 4 (Homo sapiens, UniProt P32245); experiment: MC4R antagonist potency on cAMP, dose response, cell-based, TR-FRET, biased antagonists (AID 602298); type: functional;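 also: antagonist potency against agonist-stimulated cAMP production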
[8] = insulin promoter down-regulators in MIN6 cells, imaging, high-content screening, mouse beta cells (AID 1628); type: functional
Beta-galactosidase = Beta-galactosidase (Escherichia coli, UniProt Q8VNN2); experiment: beta-galactosidase enzyme inhibitors and activators, dose response, artefact control for CCR6 antagonist project, biochemical, E. coli enzyme, set 3 (AID 504712); type: functional
[9] = HepG2 cell cytotoxicity, dose response, cytotoxicity control for Shn3 inhibitor project, CellTiter-Glo, cherry-picked (AID 624134); type: functional, cell-based
[10] = target: C-C chemokine receptor type 6 (Homo sapiens, UniProt P51684); experiment: CCR6 receptor antagonists, dose response, cell-based, luminescent beta-arrestin readout (AID 504728); type: functional
[11] = cytotoxicity in KRAS-transformed pancreatic duct cells, primary screen, cell-based, fluorescence, HTS (AID 431); type: functional; details: Homo sapiens;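 also: cell line used: HPDE-C7K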
[12] = target: Beta-2 adrenergic receptor (Homo sapiens, UniProt P07550); experiment: beta2AR agonists driving receptor internalization, dose response, cell-based, FAP fluorogen, flow cytometry, cherry pick 1 (AID 588763); type: functional
[13] = control 3'UTR Renilla luciferase suppression, dose response, counter-screen for Shn3 inhibitor project, cell-based, Clone20-Shn3RL, cherry-picked (AID 624133); type: functional
[14] = cytotoxicity in HPDE-C7 cells, cell-based, fluorescence, HTS (AID 430); type: functional; details: Homo sapiens
[15] = target: Heat shock protein HSP 90-alpha (Homo sapiens, UniProt P07900); type: functional, organism-based
[16] = cytotoxicity toward NIH3T3 fibroblasts, dose response, counter-screen, cell-based, ATP luminescence, mouse fibroblasts (AID 2010); type: functional;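 also: cells exposed to compound for about 90 hours before reading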
[17] = target: Tyrosine-protein kinase Lck (Homo sapiens, UniProt P06239); type: functional;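 also: lck was assayed as one member of a kinase panel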
[18] = target: Proto-oncogene tyrosine-protein kinase Src (Homo sapiens, UniProt P12931); type: functional;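 also: SRC entry within a kinome-wide kinase profiling panel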
[19] = target: BDNF/NT-3 growth factors receptor (Homo sapiens, UniProt Q16620); type: functional;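 also: NTRK2 measured as one member of a broad kinome-wide kinase profiling panel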
[20] = target: Platelet-derived growth factor receptor alpha (Homo sapiens, UniProt P16234); experiment: Navigating the Kinome. Panel member name: PDGFRA; type: functional
[21] = target: Leukocyte tyrosine kinase receptor (Homo sapiens, UniProt P29376); experiment: Navigating the Kinome. Panel member name: LTK; type: functional
[22] = target: Platelet-derived growth factor receptor beta (Homo sapiens, UniProt P09619); type: functional;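 also: value comes from a kinome panel, with PDGFRB tested as one panel member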
Sequence of Platelet-derived growth factor receptor beta (P09619 whole entry): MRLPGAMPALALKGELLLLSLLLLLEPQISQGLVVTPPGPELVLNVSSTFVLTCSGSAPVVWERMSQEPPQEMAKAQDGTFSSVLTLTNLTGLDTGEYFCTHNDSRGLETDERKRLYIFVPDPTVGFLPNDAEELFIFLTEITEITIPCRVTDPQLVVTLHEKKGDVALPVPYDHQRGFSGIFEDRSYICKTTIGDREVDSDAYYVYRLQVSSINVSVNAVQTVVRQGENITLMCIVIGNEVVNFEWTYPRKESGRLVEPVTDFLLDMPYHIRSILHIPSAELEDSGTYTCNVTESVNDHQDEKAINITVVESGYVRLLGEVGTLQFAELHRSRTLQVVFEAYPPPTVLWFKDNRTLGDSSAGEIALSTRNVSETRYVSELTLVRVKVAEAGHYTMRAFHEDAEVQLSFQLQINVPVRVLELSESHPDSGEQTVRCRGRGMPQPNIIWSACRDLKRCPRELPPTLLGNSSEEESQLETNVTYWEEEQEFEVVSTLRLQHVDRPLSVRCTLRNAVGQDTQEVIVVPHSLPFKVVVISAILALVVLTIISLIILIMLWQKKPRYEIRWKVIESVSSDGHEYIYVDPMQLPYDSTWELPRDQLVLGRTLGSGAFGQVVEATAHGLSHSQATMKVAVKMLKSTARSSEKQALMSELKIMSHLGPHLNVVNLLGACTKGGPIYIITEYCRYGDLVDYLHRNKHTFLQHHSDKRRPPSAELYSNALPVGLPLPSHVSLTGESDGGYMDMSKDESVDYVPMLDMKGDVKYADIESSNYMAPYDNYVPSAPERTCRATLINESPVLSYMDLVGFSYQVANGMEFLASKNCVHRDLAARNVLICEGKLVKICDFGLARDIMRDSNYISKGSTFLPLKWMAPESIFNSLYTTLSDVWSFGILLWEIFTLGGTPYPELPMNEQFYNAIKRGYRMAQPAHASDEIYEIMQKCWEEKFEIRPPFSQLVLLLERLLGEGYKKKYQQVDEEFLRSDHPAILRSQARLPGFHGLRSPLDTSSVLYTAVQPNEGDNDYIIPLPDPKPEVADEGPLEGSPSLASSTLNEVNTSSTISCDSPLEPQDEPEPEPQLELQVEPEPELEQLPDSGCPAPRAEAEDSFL

Activin receptor type-1 = Activin receptor type-1 (Homo sapiens, UniProt Q04771); experiment: Navigating the Kinome. Panel member name: ACVR1; type: functional
Sequence of Activin receptor type-1 (Q04771 whole entry): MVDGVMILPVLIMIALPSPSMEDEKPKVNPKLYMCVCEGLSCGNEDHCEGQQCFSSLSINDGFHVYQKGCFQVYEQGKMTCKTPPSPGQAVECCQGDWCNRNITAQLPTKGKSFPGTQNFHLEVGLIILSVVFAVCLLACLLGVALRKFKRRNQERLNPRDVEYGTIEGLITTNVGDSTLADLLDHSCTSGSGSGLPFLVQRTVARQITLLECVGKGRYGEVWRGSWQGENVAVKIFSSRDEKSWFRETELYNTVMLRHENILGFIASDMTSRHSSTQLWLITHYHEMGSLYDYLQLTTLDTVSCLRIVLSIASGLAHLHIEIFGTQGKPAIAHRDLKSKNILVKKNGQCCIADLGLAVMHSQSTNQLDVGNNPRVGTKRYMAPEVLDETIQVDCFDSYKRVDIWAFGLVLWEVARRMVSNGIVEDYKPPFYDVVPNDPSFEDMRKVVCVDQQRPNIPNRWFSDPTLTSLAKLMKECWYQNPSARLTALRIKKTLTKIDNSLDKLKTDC

[23] = target: cAMP-dependent protein kinase catalytic subunit alpha (Homo sapiens, UniProt P17612); type: functional
[24] = target: Macrophage colony-stimulating factor 1 receptor (Homo sapiens, UniProt P07333); type: functional;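 also: value comes from the Navigating the Kinome screening panel, CSF1R member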
Sequence of Macrophage colony-stimulating factor 1 receptor (P07333 whole entry): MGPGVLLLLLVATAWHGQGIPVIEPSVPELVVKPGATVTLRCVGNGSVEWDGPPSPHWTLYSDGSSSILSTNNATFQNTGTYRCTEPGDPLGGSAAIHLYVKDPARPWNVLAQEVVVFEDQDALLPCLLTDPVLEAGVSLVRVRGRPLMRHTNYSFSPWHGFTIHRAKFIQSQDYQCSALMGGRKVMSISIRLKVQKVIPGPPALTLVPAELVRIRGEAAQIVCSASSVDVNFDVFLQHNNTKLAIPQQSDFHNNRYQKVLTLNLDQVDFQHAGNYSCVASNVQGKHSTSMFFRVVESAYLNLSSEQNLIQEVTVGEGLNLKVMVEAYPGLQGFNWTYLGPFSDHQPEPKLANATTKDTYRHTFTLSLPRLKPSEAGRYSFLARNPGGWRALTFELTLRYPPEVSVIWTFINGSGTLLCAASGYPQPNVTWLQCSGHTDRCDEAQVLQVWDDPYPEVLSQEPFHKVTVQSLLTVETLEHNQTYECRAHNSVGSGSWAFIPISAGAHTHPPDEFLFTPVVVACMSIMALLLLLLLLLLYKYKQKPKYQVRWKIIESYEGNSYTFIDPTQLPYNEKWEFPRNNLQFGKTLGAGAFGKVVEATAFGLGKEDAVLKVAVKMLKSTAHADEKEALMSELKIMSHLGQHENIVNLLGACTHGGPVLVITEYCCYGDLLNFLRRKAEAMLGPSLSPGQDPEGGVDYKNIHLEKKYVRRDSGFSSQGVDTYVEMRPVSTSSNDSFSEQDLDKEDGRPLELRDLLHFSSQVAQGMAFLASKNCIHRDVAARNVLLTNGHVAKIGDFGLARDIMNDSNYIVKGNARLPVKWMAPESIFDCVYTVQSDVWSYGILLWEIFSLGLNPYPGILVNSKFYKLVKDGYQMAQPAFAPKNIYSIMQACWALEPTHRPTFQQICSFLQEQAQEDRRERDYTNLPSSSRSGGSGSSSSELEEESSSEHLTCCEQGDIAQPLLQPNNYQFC

[25] = target: Serine/threonine-protein kinase PLK4 (Homo sapiens, UniProt O00444); type: functional;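 also: PLK4 measured as one member of a kinome-wide kinase profiling panel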
[26] = target: Serine/threonine-protein kinase PLK3 (Homo sapiens, UniProt Q9H4B4); type: functional
[27] = target: Cyclin-dependent kinase 9 (Homo sapiens, UniProt P50750); type: functional;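 also: value from the CDK9 entry of a kinome-spanning kinase panel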
[28] = target: RAC-alpha serine/threonine-protein kinase (Homo sapiens, UniProt P31749); type: functional;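 also: AKT1 affinity measured as one member of a kinome-wide kinase profiling panel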
Aurora kinase A = Aurora kinase A (Homo sapiens, UniProt O14965); type: functional;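 also: value from the Navigating the Kinome kinase panel profiling, panel entry STK6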
[29] = target: T3, Receptor-type tyrosine-protein kinase FLT3 (Homo sapiens, UniProt P36888); type: functional;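 also: FLT3 was tested as one member of a kinome-wide kinase panel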
T3 sequence (P36888 whole entry): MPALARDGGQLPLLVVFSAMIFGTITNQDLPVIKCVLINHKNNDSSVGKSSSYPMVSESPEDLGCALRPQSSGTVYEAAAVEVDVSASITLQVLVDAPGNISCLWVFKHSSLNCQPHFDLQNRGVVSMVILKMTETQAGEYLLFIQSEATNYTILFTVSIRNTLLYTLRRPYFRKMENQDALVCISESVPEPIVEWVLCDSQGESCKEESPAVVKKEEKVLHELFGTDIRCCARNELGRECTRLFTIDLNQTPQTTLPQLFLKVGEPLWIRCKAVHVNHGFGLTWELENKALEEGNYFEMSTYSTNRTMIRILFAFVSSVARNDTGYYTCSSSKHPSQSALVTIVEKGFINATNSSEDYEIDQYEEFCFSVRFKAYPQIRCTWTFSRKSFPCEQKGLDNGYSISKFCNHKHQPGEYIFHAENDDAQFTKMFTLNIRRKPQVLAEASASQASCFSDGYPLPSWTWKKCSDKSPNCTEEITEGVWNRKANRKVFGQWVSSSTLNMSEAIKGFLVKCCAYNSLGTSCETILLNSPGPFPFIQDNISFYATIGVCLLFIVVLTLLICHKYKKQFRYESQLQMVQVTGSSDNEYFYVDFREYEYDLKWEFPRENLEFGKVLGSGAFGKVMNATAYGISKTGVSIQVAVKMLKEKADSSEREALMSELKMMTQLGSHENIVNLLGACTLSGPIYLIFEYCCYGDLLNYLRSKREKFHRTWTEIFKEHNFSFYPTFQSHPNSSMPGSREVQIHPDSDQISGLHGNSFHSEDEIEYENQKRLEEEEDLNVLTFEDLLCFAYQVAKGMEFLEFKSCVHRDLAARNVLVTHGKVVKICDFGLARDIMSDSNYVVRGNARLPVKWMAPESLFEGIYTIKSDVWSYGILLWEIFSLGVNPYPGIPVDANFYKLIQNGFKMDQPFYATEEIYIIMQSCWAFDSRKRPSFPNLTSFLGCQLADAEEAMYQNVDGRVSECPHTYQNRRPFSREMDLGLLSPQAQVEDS

[30] = target: Protein kinase C theta type (Homo sapiens, UniProt Q04759); experiment: Navigating the Kinome. Panel member name: PRKCQ; type: functional
[31] = target: Dual specificity tyrosine-phosphorylation-regulated kinase 1A (Homo sapiens, UniProt Q13627); type: functional;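 also: measured against DYRK1A as one member of a broad kinome profiling panel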
[32] = target: Fibroblast growth factor receptor 1 (Homo sapiens, UniProt P11362); type: functional
Sequence of Fibroblast growth factor receptor 1 (P11362 whole entry): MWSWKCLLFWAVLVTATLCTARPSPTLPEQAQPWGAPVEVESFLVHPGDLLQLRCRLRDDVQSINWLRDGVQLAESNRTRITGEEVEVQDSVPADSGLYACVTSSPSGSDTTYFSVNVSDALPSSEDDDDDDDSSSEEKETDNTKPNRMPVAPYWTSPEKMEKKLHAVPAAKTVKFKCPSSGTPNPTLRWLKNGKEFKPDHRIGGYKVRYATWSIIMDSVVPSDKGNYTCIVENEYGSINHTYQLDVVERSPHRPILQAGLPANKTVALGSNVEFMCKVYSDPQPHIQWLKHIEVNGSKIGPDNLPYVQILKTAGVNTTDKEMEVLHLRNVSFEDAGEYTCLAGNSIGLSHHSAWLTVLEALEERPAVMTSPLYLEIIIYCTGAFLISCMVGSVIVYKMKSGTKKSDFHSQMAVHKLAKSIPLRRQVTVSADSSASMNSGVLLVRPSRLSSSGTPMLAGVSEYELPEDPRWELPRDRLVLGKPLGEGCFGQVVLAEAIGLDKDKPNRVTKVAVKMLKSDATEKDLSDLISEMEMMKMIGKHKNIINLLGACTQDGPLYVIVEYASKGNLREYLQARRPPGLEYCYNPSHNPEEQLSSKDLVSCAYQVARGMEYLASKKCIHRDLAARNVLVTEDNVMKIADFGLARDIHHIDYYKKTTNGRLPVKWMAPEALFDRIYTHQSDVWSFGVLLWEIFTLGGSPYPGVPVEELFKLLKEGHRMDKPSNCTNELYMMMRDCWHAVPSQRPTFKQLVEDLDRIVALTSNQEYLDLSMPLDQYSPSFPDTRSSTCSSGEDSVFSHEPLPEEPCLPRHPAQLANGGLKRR

[33] = target: Serine/threonine-protein kinase pim-3 (Homo sapiens, UniProt Q86V86); type: functional;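 also: value obtained as one member of a broad kinase panel profiling effort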
[34] = target: RAC-gamma serine/threonine-protein kinase (Homo sapiens, UniProt Q9Y243); type: functional
[35] = target: Serine/threonine-protein kinase Chk1 (Homo sapiens, UniProt O14757); type: functional;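 also: measured as one member of a kinome-wide kinase profiling panel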
[36] = target: Serine/threonine-protein kinase PLK1 (Homo sapiens, UniProt P53350); type: functional;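 also: PLK1 measured as one member of a kinome-wide profiling panel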
[37] = target: Cyclin-dependent kinase 19 (Homo sapiens, UniProt Q9BWU1); experiment: Navigating the Kinome. Panel member name: CDC2L6; type: functional
Sequence of Cyclin-dependent kinase 19 (Q9BWU1 whole entry): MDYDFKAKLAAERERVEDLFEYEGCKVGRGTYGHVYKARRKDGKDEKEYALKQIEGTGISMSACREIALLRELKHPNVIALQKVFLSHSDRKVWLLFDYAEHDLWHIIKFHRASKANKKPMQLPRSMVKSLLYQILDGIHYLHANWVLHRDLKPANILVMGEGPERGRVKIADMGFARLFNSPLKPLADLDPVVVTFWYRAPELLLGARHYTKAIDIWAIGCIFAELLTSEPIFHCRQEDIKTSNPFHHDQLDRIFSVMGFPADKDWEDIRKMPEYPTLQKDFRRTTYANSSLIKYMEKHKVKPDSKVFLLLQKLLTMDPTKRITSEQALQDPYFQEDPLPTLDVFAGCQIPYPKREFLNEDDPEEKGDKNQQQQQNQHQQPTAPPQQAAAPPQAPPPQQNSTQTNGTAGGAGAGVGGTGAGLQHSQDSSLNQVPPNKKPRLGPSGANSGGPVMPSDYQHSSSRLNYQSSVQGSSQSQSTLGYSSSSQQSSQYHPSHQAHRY

Aurora kinase B = Aurora kinase B (Homo sapiens, UniProt Q96GD4); type: functional
[38] = target: Serine/threonine-protein kinase pim-1 (Homo sapiens, UniProt P11309); type: functional
[39] = target: Vascular endothelial growth factor receptor 2 (Homo sapiens, UniProt P35968); type: functional
Insulin receptor = Insulin receptor (Homo sapiens, UniProt P06213); type: functional;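 also: insulin receptor kinase tested as one member of a kinome-wide kinase panel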

Sequence of Mitogen-activated protein kinase 9 (P45984 whole entry): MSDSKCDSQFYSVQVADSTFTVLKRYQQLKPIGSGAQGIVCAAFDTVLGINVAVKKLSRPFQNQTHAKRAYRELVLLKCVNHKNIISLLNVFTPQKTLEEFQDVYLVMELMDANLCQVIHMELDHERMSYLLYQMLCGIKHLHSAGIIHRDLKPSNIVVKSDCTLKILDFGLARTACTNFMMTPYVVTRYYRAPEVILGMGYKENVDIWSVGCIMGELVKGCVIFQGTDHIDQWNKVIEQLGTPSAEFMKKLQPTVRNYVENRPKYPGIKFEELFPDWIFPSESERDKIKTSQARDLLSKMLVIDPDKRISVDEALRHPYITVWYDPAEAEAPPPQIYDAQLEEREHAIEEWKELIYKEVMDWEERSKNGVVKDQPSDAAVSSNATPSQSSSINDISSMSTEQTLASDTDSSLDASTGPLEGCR
Sequence of Mitogen-activated protein kinase 12 (P53778 whole entry): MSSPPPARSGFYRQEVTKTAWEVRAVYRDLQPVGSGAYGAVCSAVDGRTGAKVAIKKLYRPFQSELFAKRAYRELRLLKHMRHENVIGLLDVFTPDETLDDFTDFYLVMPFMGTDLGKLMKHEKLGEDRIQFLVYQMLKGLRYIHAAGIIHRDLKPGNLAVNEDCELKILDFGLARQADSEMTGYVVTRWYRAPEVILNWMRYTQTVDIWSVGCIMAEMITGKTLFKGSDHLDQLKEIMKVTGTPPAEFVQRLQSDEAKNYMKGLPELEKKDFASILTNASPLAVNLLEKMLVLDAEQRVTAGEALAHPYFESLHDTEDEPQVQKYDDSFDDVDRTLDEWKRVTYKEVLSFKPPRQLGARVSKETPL

With `CN(C)CCCN(C)C(=O)C1Cc2[nH]cnc2C2(CCCCC2)N1` (stereo not drawn) the Ki [1] was 3.16 µM (active) and the Ki [2] was 2.51 µM (active).

For `CC(C)(C)c1cc(C(c2cccnc2)N2CCN(CCO)CC2)cc(C(C)(C)C)c1O` (stereo not drawn), the IC50 [3] was 3.96 µM (active), the EC50 [4] was 0.488 µM (active) and the AC50 [5] was 20 µM (active). The EC50 (Protein RecA) was 17.3 µM (active), the AC50 [6] was 1.7 µM (active) and the IC50 [7] was > 64.6 µM (inactive). For the same compound, the IC50 (Melanocortin receptor 4) was 25.1 µM (inactive), the IC50 [8] was 4.68 µM (active) and the IC50 (Beta-galactosidase) was > 66.6 µM (inactive). The AC50 [9] was 25.2 µM (active), the IC50 [10] was 35.9 µM (inactive) and the EC50 [11] was 3.45 µM (active). The EC50 [12] was 7.35 µM (inactive), the AC50 [13] was 7.04 µM (active) and the EC50 [14] was 3.77 µM (active). The AC50 [15] was 24 µM (active) and the EC50 [16] was 4.59 µM (active).

With `COc1cc(Nc2ncc3c(n2)-c2ccc(Cl)cc2C(c2c(F)cccc2OC)=NC3)ccc1C(=O)O` [ALISERTIB] the Ki [17] was 0.316 µM (active), the Ki [18] was 0.316 µM (active) and the Ki [19] was 1 µM (active). For the same compound, the Ki [20] was > 1 µM (inactive), the Ki [21] was 0.398 µM (active) and the Ki [22] was > 1 µM (inactive). For the same compound, the Ki (Activin receptor type-1) was > 3.98 µM (inactive) and the Ki [23] was 0.631 µM (active).

With `O=C(Nc1ccccc1)Nc1ccccn1` the Ki [24] was > 63.1 µM (inactive), the Ki [25] was > 39.8 µM (inactive) and the Ki [26] was > 79.4 µM (inactive). For the same compound, the Ki [27] was > 63.1 µM (inactive), the Ki [28] was > 79.4 µM (inactive) and the Ki (Aurora kinase A) was > 63.1 µM (inactive). For the same compound, the Ki [29] was 3.16 µM (active), the Ki [30] was > 100 µM (inactive) and the Ki [31] was > 79.4 µM (inactive). For the same compound, the Ki [22] was > 79.4 µM (inactive), the Ki [32] was > 50.1 µM (inactive) and the Ki [33] was 50.1 µM (active). For the same compound, the Ki [34] was > 100 µM (inactive), the Ki [23] was > 50.1 µM (inactive) and the Ki [35] was > 79.4 µM (inactive). For the same compound, the Ki [36] was > 79.4 µM (inactive), the Ki [37] was > 100 µM (inactive) and the Ki (Aurora kinase B) was 79.4 µM (active). The Ki [38] was 79.4 µM (active), the Ki [39] was > 100 µM (inactive) and the Ki (Insulin receptor) was > 50.1 µM (inactive).
